# Data taken from PMC10447463, “Data-mining unveils structure–property–activity correlation of viral infectivity enhancing self-assembling peptides” (Nature Communications, 2023).
# Assays:
# [1] = Turbidity, derived count rate of scattered light; assay type: physicochemical; details: for Count Rate / kcps: derived count rate of scattered light at 633 nm, 173°, from zeta-potential measurement, 0.1 mg/mL in 1 mM KCl after 1 d at 1 mg/mL in PBS, turbidity / microscopic aggregation, mean of triplicate
# Method in brief: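 One-day room-temperature aggregation at 1 mg/mL in PBS (pH 7.4) preceded measurement; samples then went into 1 mM KCl. Triplicates per sample, two independent experiments averaged.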
# [2] = β-sheet content by ATR-FT-IR; assay type: physicochemical; details: for b -sheet / %: Fig. S7 panel A, β-sheet content by ATR-FT-IR
# Method in brief: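 ATR FT-IR, diamond crystal, 64 scans, 2 cm^-1, on freeze-dried 1 mg/mL PNF; β-sheet per prior calculation. Fluorescamine CR: 3 kDa filter, DMSO redissolution, 20 min RT, ex 365/em 470 nm; values as n-fold enhancement over DMSO (set to 1).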
# [3] = Log10 of derived count rate of scattered light (turbidity)
# [4] = turbidity, Log10 of derived count rate of scattered light, Figure 3A source data
# [5] = turbidity, log10 of derived count rate of scattered light
# [6] = logarithm of count rate in kcps
# [7] = log10 of derived count rate of scattered light (turbidity)
Substance,"Log10 Count Rate [1, 3]",Count Rate / kcps [1] [kcps],"Log10 Count Rate [1, 4]","Log10 Count Rate [1, 5]",b -sheet / % [2] [%],other results
KIKIQINAWQ,3.174,1494,3.174,3.174,27.74,–
KFKFQF,2.263,183,2.263,2.263,46,–
KIKIQINM,2.418,262,2.418,2.418,41,–
SISISRRI,1.403,25,1.403,1.403,48.78,–
KAKQAANMWQ,2.839,690,2.839,2.839,10.94,–
QCKFKFQFNM,3.565,3670,3.565,3.565,37.29,–
KIKIQINMW,2.38,240,2.38,2.38,45.5,–
KKFQKKFQ,1.867,74,1.867,1.867,40.421,–
KVKVKVQV,1.975,94,1.975,1.975,43.06,–
HGDKCHGDKC,1.095,12,1.095,1.095,4.749,–
NMWQKFKFQF,4.148,14045,4.148,4.148,33.22,–
KNDKND,1.719,52,1.719,1.719,43.2531,–
QCKIKIQI,4.094,12427,4.094,4.094,35.27,–
CHLHLQL,3.062,1155,3.062,3.062,49.52,"Log10 Count Rate [1, 6]: 3.062"
TKTLTKTL,2.711,515,2.711,2.711,34.38,–
HHHHEIEIEIEI,2.014,103,2.014,–,48.37,"Log10 Count Rate [1, 7]: 2.014"
HGEHGE,2.381,241,2.381,2.381,9.5428,–
NMWQKIKIQI,4.001,10024,4.001,4.001,39.24,–
QCKIKIQINMWQ,3.918,8271,3.918,3.918,36.23,"Count Rate ([1]; T0, mean of n = 3): 9558.2 kcps; Count Rate ([1]; T2m, mean of n = 3): 6927 kcps; Log10 Count Rate [1, 6]: 3.918"
CKFKFQF,3.725,5303,3.725,3.725,47.43,"Count Rate ([1]; T0, mean of n = 3): 719.1 kcps; Count Rate ([1]; T0, replicate 2): 718.1 kcps; Count Rate ([1]; T0, replicate 3): 875.1 kcps; Count Rate ([1]; T2m, mean of n = 3): 801.2 kcps; Count Rate ([1]; T2m, replicate 1): 2097 kcps; Count Rate ([1]; T2m, replicate 2): 115.2 kcps; Count Rate ([1]; T2m, replicate 3): 191.5 kcps; Count Rate ([1]; T1d, mean of n = 3): 1387.9 kcps; Count Rate ([1]; T1d, replicate 1): 43.1 kcps; Count Rate ([1]; T1d, replicate 2): 2192.2 kcps; Count Rate ([1]; T1d, replicate 3): 1928.4 kcps; Log10 Count Rate [1, 6]: 3.725"
CEIEIQI,1.716,52,1.716,1.716,45,–
HGEHGEHGE,2.532,340,2.532,2.532,6.271,–
QCKFKFQFNMWQ,3.082,1208,3.082,3.082,47.0491,–

Substance,"Log10 Count Rate [1, 3]",Count Rate / kcps [1] [kcps],"Log10 Count Rate [1, 4]","Log10 Count Rate [1, 5]",b -sheet / % [2] [%],other results
EIEIEIEI,2.731,538,2.731,2.731,62.61,–
CKYKYQY,3.026,1061,3.026,–,49.12,"Log10 Count Rate [1, 7]: 3.026"
RGECKFKFQF,2.341,219,2.341,2.341,46.18,–
KIKIQIAMWQ,2.733,541,2.733,2.733,37.48,–
FDPFDPFDP,2.412,258,2.412,2.412,48.89,–
PPFHPPPFHP,1.772,59,1.772,1.772,46.6563,–
KIKQIIN,1.806,64,1.806,1.806,37.69,"Log10 Count Rate [1, 6]: 1.806"
RGEKIKIQINM,2.774,595,2.774,2.774,38.16,–
RPRGLLLGNLR,2.322,210,2.322,2.322,13.82,–
KNERIKNERI,2.508,322,2.508,2.508,37.95,–
CKIKQIINM,3.957,9058,3.957,3.957,46,–
HRRHFRHKITKKK,0.9777,10,0.9777,0.9777,45.34,–
KVKGVGK,1.709,51,1.709,1.709,8.763,–
KIKQIINMWQ,2.789,616,2.789,2.789,40.68,"Log10 Count Rate [1, 6]: 2.789"
QCKIKQIINM,4.313,20551,4.313,4.313,38.44,–
RGDKIRGDKI,2.456,286,2.456,2.456,15.01,–
CKIKIQIII,3.695,4953,3.695,3.695,36.7,–
NMWQKIKQII,2.992,982,2.992,2.992,38.14,–
CEFEFQF,2.565,367,2.565,–,53,"Log10 Count Rate [1, 7]: 2.565"
CRFRFQF,2.592,391,2.592,2.592,39.77,–
CKFKFQFNMWQ,2.154,143,2.154,2.154,47.05,–
KAKAQANMWQ,1.749,56,1.749,1.749,42.81,"Log10 Count Rate [1, 6]: 1.7; ß-sheet / % ([2]; ATR-FT-IR of lyophilised 1 mg/mL PNF solution, peak integral ratio 1625-1635 cm-1, measured once): 43%"
KIKIQINMWA,3.042,1101,3.042,3.042,49.91,–
